# Reference: patent US11332452B2, “Pesticidal compositions and methods” (priority 2019, dated 2022)
# How the values were obtained:
# Type in all cases: in vivo
# [1] = system: Beet Armyworm (Spodoptera exigua, LAPHEG); assay: Insecticidal test for beet armyworm (BAW), 128-well diet tray assay; details: 168 h, 50 μg/cm^2 of test compound on artificial diet, second instar larvae, 25° C., five to seven days, average of eight wells, read-out: BAW % Control (or Mortality) rating
# Method in brief: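 Second-instar larvae placed on artificial diet surface-treated with 50 μg/cm^2 compound (in acetone-water), eight wells per compound. Held at 25° C, 14:10 light-dark for five to seven days; percent mortality averaged across the eight wells.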
# [2] = system: Cabbage Looper (Trichloplusia Ni, TRIPNI); assay: Insecticidal test for cabbage looper (CL), 128-well diet tray assay; details: Trichoplusia ni, 168 h, read-out: CL % Control (or Mortality) rating
# Method in brief: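 Second-instar larvae on artificial diet treated with 50 μg/cm^2 compound (acetone-water 90:10), dried; held 25° C., 14:10 light-dark, five to seven days. Percent mortality per well, averaged over eight wells.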
# [3] = system: Yellow Fever Mosquito (Aedes aegypti, AEDSAE); assay: Insecticidal test for yellow fever mosquito (YFM), 96-well plate larval assay; details: from 4000 ppm DMSO master solution, diluted; about 1 day-old larvae; room temperature; scored after 3 days
# Method in brief: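 Compounds from 4000 ppm DMSO master stocks (diluted with 90:10 water/acetone) dispensed into wells, then infested with ~1-day-old Aedes aegypti larvae in liver-powder water; 6 replicate plates. Lidded plates held at room temperature 3 days, then each well scored for mortality.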
SMILES,mortality at 50 µg/cm2 [1] [%],mortality at 50 µg/cm2 [2] [%],YFM % Control (or Mortality) rating [3]
"Cc1ccc(OCC(F)(F)F)c(N2C(=O)CS/C2=N\C(=O)NCCc2ccc(NC(=O)Nc3ccc(OC(F)(F)F)cc3)cc2)c1 [Compound A19, (Z)-1-(4-(2-(3-(3-(5-Methyl-2-(2,2,2-trifluoroethoxy)phenyl)-4-oxothiazolidin-2-ylidene)ureido)ethyl)phenyl)-3-(4-(trifluoromethoxy)phenyl)urea]",50 to 100,50 to 100,B (More than 0-Less than 80)
"Cc1ccc(C(C)C)c(N2C(=O)CS/C2=N\C(=O)Nc2ccc(NC(=O)c3ccc(OC(F)(F)F)cc3)cc2)c1 [Compound A48, (Z)—N-(4-(3-(3-(2-isopropyl-5-methylphenyl)-4-oxothiazolidin-2-ylidene)ureido)phenyl)-4-(trifluoromethoxy)benzamide]",50 to 100,50 to 100,A (80-100)
"Cc1ccc(OCC(F)(F)F)c(N2C(=O)CS/C2=N\C(=O)Nc2ccc(NNC(=O)c3ccc(OC(F)(F)F)cc3)cc2)c1 [Compound A5, (Z)-1-(3-(5-Methyl-2-(2,2,2-trifluoroethoxy)phenyl)-4-oxothiazolidin-2-ylidene)-3-(4-(2-(4-(trifluoromethoxy)benzoyl)hydrazinyl)phenyl)urea]",0 to 50,0 to 50,B (More than 0-Less than 80)
"CCC(C)Oc1ccc(C)cc1N1C(=O)CS/C1=N\C(=O)NC(C)Cc1ccc(NC(=O)Nc2ccc(C(F)(F)F)cc2)cc1 (stereo not drawn) [Compound A30, (Z)-1-(4-(2-(3-(3-(2-(sec-Butoxy)-5-methylphenyl)-4-oxothiazolidin-2-ylidene)ureido)propyl)phenyl)-3-(4-(trifluoromethyl)phenyl)urea]",50 to 100,50 to 100,B (More than 0-Less than 80)
"COc1ccc(N2C(=O)CS/C2=N\C(=O)NCCc2ccc(NC(=O)Nc3ccc(OC(F)(F)F)cc3)cc2)c(C)c1 [Compound A21, (Z)-1-(4-(2-(3-(3-(4-methoxy-2-methylphenyl)-4-oxothiazolidin-2-ylidene)ureido)ethyl)phenyl)-3-(4-(trifluoromethoxy)phenyl)urea]",50 to 100,50 to 100,A (80-100)
"CC(C)c1ccc(Cl)cc1N1C(=O)CS/C1=N\C(=O)NCCc1ccc(NC(=O)Nc2ccc(OC(F)(F)F)cc2)cc1 [Compound A15, (Z)-1-(4-(2-(3-(3-(5-Chloro-2-isopropylphenyl)-4-oxothiazolidin-2-ylidene)ureido)ethyl)phenyl)-3-(4-(trifluoromethoxy)phenyl)urea]",50 to 100,50 to 100,A (80-100)
"Cc1cc(N2C(=O)CS/C2=N\C(=O)NCCc2ccc(NC(=O)Nc3ccc(OC(F)(F)F)cc3)cc2)c(C(C)C)cc1F [Compound A25, (Z)-1-(4-(2-(3-(3-(4-Fluoro-2-isopropyl-5-methylphenyl)-4-oxothiazolidin-2-ylidene)ureido)ethyl)phenyl)-3-(4-(trifluoromethoxy)phenyl)urea]",50 to 100,50 to 100,A (80-100)
"O=C(/N=C1\SCC(=O)N1c1cc(Cl)ccc1OCC(F)(F)F)Nc1ccc(NNC(=O)c2ccc(OC(F)(F)F)cc2)cc1 [Compound A6, (Z)-1-(3-(5-Chloro-2-(2,2,2-trifluoroethoxy)phenyl)-4-oxothiazolidin-2-ylidene)-3-(4-(2-(4-(trifluoromethoxy)benzoyl)hydrazinyl)phenyl)urea]",0,0,D (No activity noticed in this bioassay)
"Cc1ccc(C(C)C)c(N2C(=O)CS/C2=N\C(=O)Nc2ccc(NC(=S)Nc3ccc(OC(F)(F)F)cc3)cc2)c1 [Compound A45, (Z)-1-(3-(2-isopropyl-5-methylphenyl)-4-oxothiazolidin-2-ylidene)-3-(4-(3-(4-(trifluoromethoxy)phenyl)thioureido)phenyl)urea]",50 to 100,50 to 100,A (80-100)
